# Patent US20240317777A1, “NOVEL MACROCYCLIC AMINOPYRAZOLE COMPOUNDS AS CDK2 INHIBITORS” (Accutar Biotechnology Inc., priority 2023, published 2024)
# pIC50: −log10 of the molar value. Read-outs that look alike come from different tables or passages of the source.
# Tests used:
# [1] = molecular target: CDK6-CYCLIN D3 (Homo sapiens, UniProt Q00534); experiment: CDK protein kinase inhibition by ADP-Glo assay, CDK6-CYCLIN D3; type: biochemical; conditions: for pIC50: read-out: CDK6-CYCLIND3, IC50; for CDK2 Fold selectivity against CDK6: fold selectivity for CDK2 over CDK6, recombinant CDK kinases
# CDK6-CYCLIN D3, sequence (Q00534 whole entry): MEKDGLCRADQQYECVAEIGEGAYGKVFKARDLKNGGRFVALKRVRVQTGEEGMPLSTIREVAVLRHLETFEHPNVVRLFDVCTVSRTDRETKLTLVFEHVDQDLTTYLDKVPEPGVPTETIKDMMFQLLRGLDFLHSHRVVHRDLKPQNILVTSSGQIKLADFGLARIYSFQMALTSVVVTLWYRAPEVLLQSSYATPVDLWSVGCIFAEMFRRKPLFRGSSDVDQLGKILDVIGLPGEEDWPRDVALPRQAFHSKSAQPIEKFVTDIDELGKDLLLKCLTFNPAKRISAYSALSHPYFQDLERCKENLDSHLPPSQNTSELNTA
# CDK6-CYCLIN D3, sequence (P30281 whole entry partner): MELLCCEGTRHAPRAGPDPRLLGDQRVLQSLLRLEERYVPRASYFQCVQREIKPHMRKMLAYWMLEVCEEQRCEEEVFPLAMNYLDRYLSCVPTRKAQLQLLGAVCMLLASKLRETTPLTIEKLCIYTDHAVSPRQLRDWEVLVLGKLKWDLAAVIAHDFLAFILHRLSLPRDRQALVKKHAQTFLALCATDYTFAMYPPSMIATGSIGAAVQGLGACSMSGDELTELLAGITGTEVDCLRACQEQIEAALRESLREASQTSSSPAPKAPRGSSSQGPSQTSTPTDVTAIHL
# Experimental: (§1) CDK Protein Kinase Inhibition by ADP-Glo Assay
# (§2) This ADP-Glo assay measures ADP formed from a kinase reaction and indirectly quantifies the phosphorylation of peptide substrates by the CDK/cyclin protein complexes. The typical assays were carried out in Nanosyn by combining kinase/cyclin complexes, substrates, compounds, and cofactors (ATP and Mg2+) in a well of a 384-well microtiter plate (Corning 3824) and incubating at 22° C. (Table 1). At the end of the incubation, the reaction is quenched, and conversion is detected by luminescence using the Promega ADP-Glo™ Kinase Assay kit (catalog #V9102).
# (§3) Final assay buffer mixture contains: • 100 mM HEPES, pH 7.5 • 0.1% BSA • 0.01% Triton X-100 • 1 mM DTT • 5 mM MgCl2 • 10 μM Sodium Orthovanadate • 100 μM Beta-Glycerophosphate • 1000 μM Ultra Pure ATP (provided in the Promega ADP-Glo™ Kinase Assay kit) • 1% DMSO (from compound)
# (§4) Upon completion, 5 μL of the ADP Glo reagent was added to each well and the plate was further incubated at room temperature for 45 minutes. 10 uL of the Kinase Detection Reagent was subsequently added to each well. After 10 minutes of incubation, the plate was read and analyzed on the BioTek Synergy microplate reader using BioTek Gen5 software.
# [2] = tested on: CCNE1-normal SKOV3 cells; experiment: Cell growth inhibition of CCNE1-normal SKOV3 cells (CellTiter-Glo); type: cell-based; conditions: Homo sapiens, SK-OV-3, 144 h, 6 days
# Summary of the method: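 Growth was measured by CellTiter-Glo luminescence after 6 days' compound exposure at 37 °C. Cells were plated one day before dosing at 1000 per well in medium with 10% FBS, and compounds were diluted from DMSO stocks.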
# [3] = molecular target: CDK2-CYCLIN E1 (Homo sapiens, UniProt P24941); experiment: CDK protein kinase inhibition by ADP-Glo assay, CDK2-CYCLIN E1; type: biochemical; conditions: read-out: CDK2-CYCLINE, IC50
# Experimental: as §1, §2, §3, §4
# [4] = molecular target: CDK9-CYCLIN T1 (Homo sapiens, UniProt P50750); experiment: CDK protein kinase inhibition by ADP-Glo assay, CDK9-CYCLIN T1; type: biochemical; conditions: for CDK2 Fold selectivity against CDK9: fold selectivity for CDK2 over CDK9, recombinant CDK kinases
# CDK9-CYCLIN T1, sequence (P50750 whole entry): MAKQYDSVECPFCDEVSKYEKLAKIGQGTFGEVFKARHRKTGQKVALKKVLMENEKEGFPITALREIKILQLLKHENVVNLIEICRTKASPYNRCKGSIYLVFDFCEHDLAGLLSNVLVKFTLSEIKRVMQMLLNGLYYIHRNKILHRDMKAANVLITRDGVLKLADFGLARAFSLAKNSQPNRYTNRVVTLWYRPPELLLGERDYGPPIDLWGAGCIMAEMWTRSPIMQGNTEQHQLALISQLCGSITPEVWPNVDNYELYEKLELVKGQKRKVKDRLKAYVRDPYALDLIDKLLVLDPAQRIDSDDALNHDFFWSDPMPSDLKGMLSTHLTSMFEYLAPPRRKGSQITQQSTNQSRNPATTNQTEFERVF
# CDK9-CYCLIN T1, sequence (O60563 whole entry partner): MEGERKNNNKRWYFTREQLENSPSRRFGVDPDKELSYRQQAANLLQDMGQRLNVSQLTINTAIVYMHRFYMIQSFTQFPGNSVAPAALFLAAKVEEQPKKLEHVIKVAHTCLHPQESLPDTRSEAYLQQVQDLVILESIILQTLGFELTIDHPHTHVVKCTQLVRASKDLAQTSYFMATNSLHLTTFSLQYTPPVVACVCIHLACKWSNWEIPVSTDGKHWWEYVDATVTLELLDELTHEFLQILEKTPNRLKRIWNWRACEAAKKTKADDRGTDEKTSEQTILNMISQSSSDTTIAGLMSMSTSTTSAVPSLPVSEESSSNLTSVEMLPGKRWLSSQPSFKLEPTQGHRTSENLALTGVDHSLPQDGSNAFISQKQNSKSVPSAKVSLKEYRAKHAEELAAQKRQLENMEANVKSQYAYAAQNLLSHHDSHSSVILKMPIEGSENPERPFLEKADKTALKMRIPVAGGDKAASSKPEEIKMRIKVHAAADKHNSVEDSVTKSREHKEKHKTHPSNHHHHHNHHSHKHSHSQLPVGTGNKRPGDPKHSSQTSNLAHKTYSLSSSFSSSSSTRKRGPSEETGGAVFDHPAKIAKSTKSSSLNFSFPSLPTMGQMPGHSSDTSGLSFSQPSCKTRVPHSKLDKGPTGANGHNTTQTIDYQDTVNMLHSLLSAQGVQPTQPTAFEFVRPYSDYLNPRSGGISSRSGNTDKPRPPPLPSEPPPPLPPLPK
# Experimental: as §1, §2, §3, §4
# [5] = molecular target: CDK4-CYCLIN D1 (Homo sapiens, UniProt P11802); experiment: CDK protein kinase inhibition by ADP-Glo assay, CDK4-CYCLIN D1; type: biochemical; conditions: for pIC50: read-out: CDK4-CYCLIND1, IC50; for CDK2 Fold selectivity against CDK4: fold selectivity for CDK2 over CDK4, recombinant CDK kinases
# CDK4-CYCLIN D1, sequence (P11802 whole entry): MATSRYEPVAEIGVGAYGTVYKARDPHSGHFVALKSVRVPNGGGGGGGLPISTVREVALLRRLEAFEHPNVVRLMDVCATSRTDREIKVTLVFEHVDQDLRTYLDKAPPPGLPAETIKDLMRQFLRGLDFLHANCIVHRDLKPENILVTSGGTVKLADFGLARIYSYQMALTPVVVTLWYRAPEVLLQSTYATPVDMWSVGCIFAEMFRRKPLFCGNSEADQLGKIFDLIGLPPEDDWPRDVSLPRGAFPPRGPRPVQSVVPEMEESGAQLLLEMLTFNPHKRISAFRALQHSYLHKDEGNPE
# CDK4-CYCLIN D1, sequence (P24385 whole entry partner): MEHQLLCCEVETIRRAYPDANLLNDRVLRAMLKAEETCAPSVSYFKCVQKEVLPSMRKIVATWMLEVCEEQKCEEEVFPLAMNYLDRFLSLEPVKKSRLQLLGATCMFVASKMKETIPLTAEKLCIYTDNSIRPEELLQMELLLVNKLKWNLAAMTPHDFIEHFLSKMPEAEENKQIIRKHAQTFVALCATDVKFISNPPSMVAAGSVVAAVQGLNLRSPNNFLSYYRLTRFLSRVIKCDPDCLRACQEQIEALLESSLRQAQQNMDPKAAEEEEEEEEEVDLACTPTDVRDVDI
# Experimental: as §1, §2, §3, §4
# [6] = tested on: CCNE1-amplified OVCAR3 cells; experiment: Cell growth inhibition of CCNE1-amplified OVCAR3 cells (CellTiter-Glo); type: cell-based; conditions: Homo sapiens, OVCAR-3, 144 h, 6 days
# Summary of the method: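 Growth read-out was CellTiter-Glo luminescence, taken after 10 min at room temperature at the end of a 6-day compound exposure at 37 °C. Compounds were diluted from DMSO stocks across various concentrations.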
# [7] = molecular target: CDK1-CYCLIN B (Homo sapiens, UniProt P06493); experiment: CDK protein kinase inhibition by ADP-Glo assay, CDK1-CYCLIN B; type: biochemical; conditions: for pIC50: read-out: CDK1-CYCLINB, IC50; for CDK2 Fold selectivity against CDK1: fold selectivity for CDK2 over CDK1, recombinant CDK kinases
# CDK1-CYCLIN B, sequence (P06493 whole entry): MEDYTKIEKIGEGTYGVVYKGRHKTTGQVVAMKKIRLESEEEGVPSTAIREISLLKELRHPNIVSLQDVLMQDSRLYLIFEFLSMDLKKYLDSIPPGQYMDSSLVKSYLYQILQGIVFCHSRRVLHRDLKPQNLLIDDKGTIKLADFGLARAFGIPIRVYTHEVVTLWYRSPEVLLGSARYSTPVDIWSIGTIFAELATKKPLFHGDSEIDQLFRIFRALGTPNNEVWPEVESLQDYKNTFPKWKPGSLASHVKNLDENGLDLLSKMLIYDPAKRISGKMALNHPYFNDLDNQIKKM
# CDK1-CYCLIN B, sequence (P14635 whole entry partner): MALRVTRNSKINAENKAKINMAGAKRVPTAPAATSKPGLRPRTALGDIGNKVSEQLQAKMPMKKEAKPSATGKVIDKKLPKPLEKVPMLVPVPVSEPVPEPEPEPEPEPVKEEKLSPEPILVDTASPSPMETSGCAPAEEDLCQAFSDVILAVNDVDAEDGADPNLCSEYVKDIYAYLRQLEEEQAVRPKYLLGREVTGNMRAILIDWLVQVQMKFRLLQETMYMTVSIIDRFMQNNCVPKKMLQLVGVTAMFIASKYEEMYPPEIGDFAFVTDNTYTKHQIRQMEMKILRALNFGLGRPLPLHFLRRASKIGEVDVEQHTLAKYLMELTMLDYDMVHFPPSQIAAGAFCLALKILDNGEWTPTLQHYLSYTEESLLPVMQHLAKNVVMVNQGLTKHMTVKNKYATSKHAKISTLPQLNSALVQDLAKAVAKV
# Experimental: as §1, §2, §3, §4
# [8] = tested on: Phospho-Rb (Ser807/811) in OVCAR3 cells; experiment: Phospho-Rb expression inhibition in OVCAR3 cells quantified by In Cell Western; type: cell-based; conditions: Homo sapiens, OVCAR-3, 24 hours, read-out: OVCAR-3 pRb IC50
# Summary of the method: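 In-cell western: after 24 h compound exposure at 37° C, fixed OVCAR3 cells co-stained for pRb Ser807/811 (800 nm channel) and total Rb (680 nm channel), imaged by LI-COR Odyssey.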
# [9] = Table 37, recombinant CDK kinase
# [10] = Table 35, recombinant CDK kinase
smiles,measurement,setting,value
"C[C@H]1CC(F)(F)COc2cc(ccn2)Nc2[nH]nc(c2F)[C@H]2CC[C@H](C2)OC(=O)N1 [Compound 244, (1^1S,1^3R,9S,E)-2^4,7,7-trifluoro-9-methyl-2^1H-5,12-dioxa-3,10-diaza-4(4,2)-pyridina-2(3,5)-pyrazola-1(1,3)-cyclopentanacyclododecaphan-11-one]",pIC50,[1]; [9],< 6.30
same,CDK2 Fold selectivity against CDK6,[1]; Table 38,"B (B, >100 and ≤500)"
same,pIC50,[2],< 5.90
same,pIC50,[3]; [9],≥ 8.00
same,pIC50,"[4]; Table 37, recombinant CDK kinase, read-out: CDK9-CYCLINT1, IC50",< 6.30
same,CDK2 Fold selectivity against CDK9,[4]; Table 38,"A (A, ≥500)"
same,pIC50,[5]; [9],< 6.30
same,CDK2 Fold selectivity against CDK4,[5]; Table 38,"B (B, >100 and ≤500)"
same,pIC50,[6],6.60 to 7.30
same,pIC50,[7]; [9],6.30 to 7.00
same,CDK2 Fold selectivity against CDK1,[7]; Table 38,"D (D, >20 and ≤50)"
same,pIC50,[8],7.30 to 8.00
C[C@@H]1Oc2cc(ccn2)Nc2cc(n[nH]2)[C@H]2CC[C@H](C2)OC(=O)N[C@H]2C[C@H]1C2 [compound 146],pIC50,"[1]; ADP-Glo, 1000 μM ATP, Table 21",6.30 to 7.00
same,pIC50,[2],5.90 to 6.60
same,pIC50,"[3]; ADP-Glo, 1000 μM ATP, Table 21",≥ 8.00
same,pIC50,"[4]; ADP-Glo, 1000 μM ATP, Table 21, read-out: CDK9-CYCLINT1, IC50",< 6.30
same,pIC50,"[5]; ADP-Glo, 1000 μM ATP, Table 21",< 6.30
same,pIC50,[6],7.30 to 8.00
same,pIC50,"[7]; ADP-Glo, 1000 μM ATP, Table 21",6.30 to 7.00
same,pIC50,[8],7.30 to 8.00
"CC1(C)CCCOc2cc(ccn2)Nc2cc([nH]n2)[C@H]2CC[C@H](C2)OC(=O)N1 [Compound 13, (1^1S,1^3R,Z)-9,9-dimethyl-2^1H-5,12-dioxa-3,10-diaza-4(4,2)-pyridina-2(3,5)-pyrazola-1(1,3)-cyclopentanacyclododecaphan-11-one]",pIC50,"[1]; ADP-Glo, 1000 μM ATP, Table 7",7.00 to 7.30
same,"CDK2 Fold Sensitivity, CDK6","[1]; CDK2 versus CDK6, Table 8","D (D, >20 and ≤50)"
same,pIC50,[2],5.90 to 6.60
same,pIC50,"[3]; ADP-Glo, 1000 μM ATP, Table 7",≥ 8.00
same,pIC50,"[4]; ADP-Glo, 1000 μM ATP, Table 7, read-out: CDK9-CYCLINT1, IC50",7.00 to 7.30
same,"CDK2 Fold Sensitivity, CDK9","[4]; CDK2 versus CDK9, Table 8","C (C, >50 and ≤100)"
same,pIC50,"[5]; ADP-Glo, 1000 μM ATP, Table 7",7.00 to 7.30
same,"CDK2 Fold Sensitivity, CDK4","[5]; CDK2 versus CDK4, Table 8","C (C, >50 and ≤100)"
same,pIC50,[6],8.00 to 8.70
same,pIC50,"[7]; ADP-Glo, 1000 μM ATP, Table 7",7.30 to 8.00
same,CDK2 fold selectivity over CDK1,"[7]; CDK2 versus CDK1, Table 8","E (E, <20)"
same,pIC50,[8],8.00 to 8.70
"C[C@@H]1CC23CC(C2)(C3)NC(=O)O[C@@H]2CC[C@@H](C2)c2cc([nH]n2)Nc2ccnc(c2)O1 [Compound 100, (1^1S,1^3R,6R,Z)-6-methyl-2^1H-5,11-dioxa-3,9-diaza-4(4,2)-pyridina-2(3,5)-pyrazola-8(1,3)-bicyclo[1.1.1]pentana-1(1,3)-cyclopentanacycloundecaphan-10-one]",pIC50,"[1]; ADP-Glo, 1000 μM ATP, Table 17",6.30 to 7.00
same,"CDK2 Fold selectivity, CDK6","[1]; CDK2 versus CDK6, Table 18","C (C, >50 and ≤100)"
same,pIC50,[2],6.60 to 7.30
same,pIC50,"[3]; ADP-Glo, 1000 μM ATP, Table 17",≥ 8.00
same,pIC50,"[4]; ADP-Glo, 1000 μM ATP, Table 17, read-out: CDK9-CYCLINT1, IC50",7.30 to 8.00
same,"CDK2 Fold selectivity, CDK9","[4]; CDK2 versus CDK9, Table 18","D (D, >20 and ≤50)"
same,pIC50,"[5]; ADP-Glo, 1000 μM ATP, Table 17",6.30 to 7.00
same,"CDK2 Fold selectivity, CDK4","[5]; CDK2 versus CDK4, Table 18","C (C, >50 and ≤100)"
same,pIC50,[6],7.30 to 8.00
same,pIC50,"[7]; ADP-Glo, 1000 μM ATP, Table 17",7.30 to 8.00
same,"CDK2 Fold selectivity, CDK1","[7]; CDK2 versus CDK1, Table 18","E (E, <20)"
same,pIC50,[8],8.00 to 8.70
C[C@@H]1NC(=O)O[C@@H]2CC[C@@H](C2)c2cc([nH]n2)Nc2ccnc(c2)COCC1(F)F [compound 164],pIC50,"[1]; ADP-Glo, 1000 μM ATP, Table 31",7.30 to 8.00
same,pIC50,[2],7.30 to 8.00
same,pIC50,"[3]; ADP-Glo, 1000 μM ATP, Table 31",≥ 8.00
same,pIC50,"[4]; ADP-Glo, 1000 μM ATP, Table 31, read-out: CDK9-CYCLINT1, IC50",≥ 8.00
same,pIC50,"[5]; ADP-Glo, 1000 μM ATP, Table 31",≥ 8.00
same,pIC50,[6],≥ 8.70
same,pIC50,"[7]; ADP-Glo, 1000 μM ATP, Table 31",≥ 8.00
same,pIC50,[8],≥ 8.70
O=C1NC23CC(CCc4cc(ccn4)Nc4cc([nH]n4)[C@H]4CC[C@H](C4)O1)(C2)C3 [compound 21],pIC50,"[1]; ADP-Glo, 1000 μM ATP, Table 9",6.30 to 7.00
same,pIC50,[2],5.90 to 6.60
same,pIC50,"[3]; ADP-Glo, 1000 μM ATP, Table 9",7.30 to 8.00
same,pIC50,"[4]; ADP-Glo, 1000 μM ATP, Table 9, read-out: CDK9-CYCLINT1, IC50",6.30 to 7.00
same,pIC50,"[5]; ADP-Glo, 1000 μM ATP, Table 9",6.30 to 7.00
same,pIC50,[6],8.00 to 8.70
same,pIC50,"[7]; ADP-Glo, 1000 μM ATP, Table 9",< 6.30
same,pIC50,[8],8.00 to 8.70
"[2H]C1([2H])Oc2cc(ccn2)Nc2cc(n[nH]2)[C@H]2CC[C@H](C2)OC(=O)N[C@H]2C[C@H]1C2 [Compound 177, (1^1S,1^3R,7^1R,7^3S,Z)-2^1H-5,10-dioxa-3,8-diaza-4(4,2)-pyridina-2(3,5)-pyrazola-1(1,3)-cyclopentana-7(1,3)-cyclobutanacyclodecaphan-9-one-6,6-d2]",pIC50,"[1]; ADP-Glo, 1000 μM ATP, Table 27",6.30 to 7.00
same,"CDK2 Fold selectivity, CDK6","[1]; CDK2 versus CDK6, Table 28","D (D, >20 and ≤50)"
same,pIC50,[1]; [10],7.30 to 8.00
same,CDK2 Fold selectivity against CDK6,[1]; Table 36,"E (E, <20)"
same,pIC50,"[3]; ADP-Glo, 1000 μM ATP, Table 27",≥ 8.00
same,pIC50,[3]; [10],≥ 8.00
same,pIC50,"[4]; ADP-Glo, 1000 μM ATP, Table 27, read-out: CDK9-CYCLINT1 IC50",6.30 to 7.00
same,"CDK2 Fold selectivity, CDK9","[4]; CDK2 versus CDK9, Table 28","D (D, >20 and ≤50)"
same,pIC50,"[4]; Table 35, recombinant CDK kinase, read-out: CDK9-CYCLINT1, IC50",7.00 to 7.30
same,CDK2 Fold selectivity against CDK9,[4]; Table 36,"D (D, >20 and ≤50)"
same,pIC50,"[5]; ADP-Glo, 1000 μM ATP, Table 27",7.00 to 7.30
same,"CDK2 Fold selectivity, CDK4","[5]; CDK2 versus CDK4, Table 28","D (D, >20 and ≤50)"
same,pIC50,[5]; [10],7.30 to 8.00
same,CDK2 Fold selectivity against CDK4,[5]; Table 36,"E (E, <20)"
same,pIC50,[6],7.30 to 8.00
same,pIC50,"[7]; ADP-Glo, 1000 μM ATP, Table 27",7.30 to 8.00
same,"CDK2 Fold selectivity, CDK1","[7]; CDK2 versus CDK1, Table 28","E (E, <20)"
same,pIC50,[7]; [10],7.30 to 8.00
same,CDK2 Fold selectivity against CDK1,[7]; Table 36,"E (E, <20)"
same,pIC50,[8],8.00 to 8.70
